The text below walks through data of US20230256050A1, “COMPOSITIONS, METHODS AND USES COMPRISING TENEURIN C-TERMINAL ASSOCIATED PEPTIDE -1 (TCAP-1) FOR ENHANCING MUSCLE PERFORMANCE” (priority 2016, published 2023).

Experiment [1] relates to C2C12 myotubes. The experiment is described as follows: Calcium imaging in live C2C12 cells (fluo-4). The experiment is classed as cell-based, mouse. The note with it: caffeine 4 mM, TCAP-1 100 nM pre-treatment for 1 hour. As to the method: For live-cell fluorescence experiments, immortalized murine C2C12 skeletal muscle cells were grown and fully differentiated on Poly-D-lysine coated 25 mm round No. 1 glass coverslips (Warner Instruments, Hamden, CT, USA). Cells were grown in Dulbecco’s Modified Eagle Medium (DMEM) supplemented with 20% fetal bovine serum (FBS), 100 U/ml penicillin and 100 µg/ml streptomycin (Invitrogen, Burlington, ON, Canada), and stimulated differentiation with DMEM supplemented with 10% horse serum (HS), 100 U/ml penicillin and 100 µg/ml streptomycin (Invitrogen, Burlington, ON, Canada. Changes in intracellular calcium were assessed using the membrane-permeable calcium sensitive fluorescent indicator fluo-4, AM (Invitrogen, Burlington, ON, Canada). Cells were loaded with fluo-4 by incubating a single coverslip in DMEM containing 10 µM fluo-4 (from a 1 mM stock solution in DMSO) for 30 min (37° C.) followed by a 15 min wash in Locke’s Buffer containing (in mM): 154 mM NaCl, 4 mM NaHCOs, 5 mM KCI, 2.3 mM CaCl2, 1 mM MgCl2, 5 mM glucose and 10 mM Hepes (pH 7.4); osmolarity 305-310 mOsmol at 22° C. During loading, the acetate groups on fluo-4 are removed by intracellular esterases reducing dye leakage. In experiments assessing changes in intracellular calcium, coverslips were placed in a flow-through bath chamber (RC-40HP, Warner Instruments, Hamden, CT, USA) of an inverted microscope (Axio Observer Z1, Zeiss, Toronto, ON, Canada) equipped with a 40× oil immersion objective. Cells were continuously bulk perfused with Locke’s buffer via a gravity drip perfusion system at a rate of 2-3 ml min-1 and experiments were conducted at a room temperature (RT) of 22° C. Changes in fluo-4 fluorescence was imaged using a green fluorescent protein (GFP) filter set (Semrock, Rochester, NY, USA) and a X-Cite 120 fluorescence illumination system (Excelitas Technologies, Mississauga, ON, Canada), controlled by Volocity 4.0 imaging software (Quorum Technologies Inc., Guelph, ON, Canada). Fluorescence emissions were detected with an Orca-ER Hamamatsu B/W CCD digital camera (Hamamatsu, Middlesex, NJ, USA). Fluo-4 was excited with a wavelength of 480 nm for 100 ms every 5 sec and fluorescence emission was measured at wavelength of 516 nm. Caffeine (4 mM; Sigma Aldrich, Oakville, ON) was applied to C2C12 myotubes to stimulate calcium release from the sarcoplasmic reticulum. Cells were either pre-treated with TCAP-1 (100 nM) for 1 hour before stimulation with caffeine. Using velocity 4.0 imaging software, multiple regions of interests (ROIs) were taken from each coverslip to be analysed.

The subject of experiment [2] is C2C12 myotubes. The experiment is described as follows: Mitochondrial membrane potential in C2C12 cells with Rhodamine-123. The conditions noted are these: caffeine 4 mM; TCAP-1 100 nM pre-treatment for 1 hour, compared with caffeine alone. It counts as cell-based, mouse. As to the method: C2C12 myotubes were cultured as previously described above. Changes in mitochondrial membrane potential were assessed using fluorescent indicator Rhodamine123 (R123). Cells were loaded with R123 by incubating a single coverslip in DMEM containing 5 µM R123 (from a 1 mM stock solution in DMSO) for 30 min (37° C.) followed by a 15 min wash in Locke’s Buffer containing (in mM): 154 mM NaCl, 4 mM NaHCOs, 5 mM KCI, 2.3 mM CaCl2, 1 mM MgCl2, 5 mM glucose and 10 mM Hepes (pH 7.4); osmolarity 305-310 mOsmol at 22° C. […] Changes in R123 fluorescence was imaged using a green fluorescent protein (GFP) filter set (Semrock, Rochester, NY, USA) and a X-Cite 120 fluorescence illumination system (Excelitas Technologies, Mississauga, ON, Canada), controlled by Volocity 4.0 imaging software (Quorum Technologies Inc., Guelph, ON, Canada). Fluorescence emissions were detected with an Orca-ER Hamamatsu B/W CCD digital camera (Hamamatsu, Middlesex, NJ, USA). R123 was excited with a wavelength of 480 nm for 100 ms every 5 sec and fluorescence emission was measured at wavelength of 516 nm. […] Using velocity 4.0 imaging software, multiple regions of interests (ROIs) were taken from each coverslip to be analysed.

`Cn1c(=O)c2c(ncn2C)n(C)c1=O` [caffeine, Caffeine, reference compound]: in the experiment on C2C12 myotubes [1] (compared with caffeine alone), the “peak in cytosolic calcium on caffeine application (fluo-4 fluorescence)” value is “strong peak in cytosolic calcium”. Also, the “decline of cytosolic calcium after the caffeine peak” value in the experiment with C2C12 myotubes [1] (over 5 minutes) is listed as “gradual decrease over 5 minutes”. Further, the “mitochondrial membrane potential (Rhodamine123 fluorescence)” value with C2C12 myotubes [2] is given as “mitochondrial membrane depolarization”.
